# Source: PubChem BioAssay (NCI)
#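 Growth conditions: 96-well plates. Treatment: test compound, 48 hours, 5 concentrations. Analysis: linear interpolation between bracketing concentrations; unreached endpoints set to highest concentration. GI50 = concentration required for 50% inhibition of growth. TGI is the concentration that stops growth completely.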
# Tests used:
# Assay in all cases: NCI tumour cell line growth inhibition, 48 h
# [1] = system: HCT-116 colon
# [2] = system: HOP-62 NSCLC
# [3] = system: SK-OV-3 ovarian
# [4] = system: OVCAR-3 ovarian
# [5] = system: BT-549 breast
# [6] = system: MALME-3M melanoma
# [7] = system: MOLT-4 leukemia
# [8] = system: SF-268 CNS
# [9] = system: LOX IMVI melanoma
# [10] = system: CAKI-1 renal
Structure (SMILES),TGI [1] [µM],TGI [2] [µM],TGI [3] [µM],TGI [4] [µM],TGI [5] [µM],TGI [6] [µM],TGI [7] [µM],TGI [8] [µM],TGI [9] [µM],TGI [10] [µM],GI50 [1] [µM],GI50 [2] [µM],GI50 [3] [µM],GI50 [4] [µM],GI50 [5] [µM],GI50 [6] [µM],GI50 [7] [µM],GI50 [8] [µM],GI50 [9] [µM],GI50 [10] [µM]
COc1ccc(/C=N/Nc2[nH]c(=S)nc3[nH]ncc23)cc1,> 100,77.9,> 100,> 100,> 100,99.4,> 100,> 100,> 100,> 100,,,,,,,,,,
COc1cc(N=Nc2cccc(S(=O)(=O)O)c2)c(C)cc1N=Nc1ccc(/C=C/c2ccc(N=[N+]([O-])c3ccc(/C=C/c4ccc(N=Nc5cc(C)c(N=Nc6cccc(S(=O)(=O)O)c6)cc5OC)cc4)c(S(=O)(=O)O)c3)cc2S(=O)(=O)O)cc1,> 100,> 100,> 100,> 100,,> 100,> 100,> 100,> 100,,,,,,,,,,,
Cc1ncc([N+](=O)[O-])n1CCN=[N+]=[N-],> 100,> 100,> 100,> 100,> 100,> 100,,> 100,,> 100,,,,,,,,,,
COc1ccccc1C1C(C#N)=C(N)OC2=C1C(=O)CCC2 (configuration not stated),> 100,> 100,> 100,> 100,> 100,> 100,> 100,> 100,> 100,> 100,> 100,> 100,> 100,> 100,> 100,> 100,> 100,> 100,> 100,> 100
COc1cc(C2C(Cl)C(=O)N2c2ccc(Br)cc2)cc(I)c1O (configuration not stated),> 100,> 100,> 100,> 100,> 100,,> 100,> 100,> 100,> 100,,,,,,,,,,
O=S1(=O)NNC(=NCc2ccc(F)cc2)c2ccccc21,> 100,> 100,> 100,> 100,> 100,> 100,> 70.8,> 100,> 100,> 100,,,,,,,,,,
NC(N)=N/N=C(\c1ccc(Cl)cc1)C1CC1,31,37.7,78.7,50.4,49.6,29,,> 100,30,> 100,,,,,,,,,,
C=C1C(=O)O[C@H]2C1[C@H](OC(=O)/C(C)=C\COC(C)=O)C[C@]1(CO1)[C@@H]1[C@H](O)[C@H]3O[C@@]3(C)[C@@H]12 (some centres not stated),26.5,> 100,> 100,44.8,,38,> 73.3,49.7,37.2,31.5,,,,,,,,,,
COc1ccc(CNc2nc(NCc3ccc(OC)cc3)nc(NC3CCCCC3)n2)cc1,11.7,> 100,> 100,6.24,37.9,1.61,> 100,6.5,20.2,4.86,,,,,,,,,,
COc1cc(S(=O)(=O)Nc2nc(-c3ccc(N4C(=O)/C(=C/c5ccccc5)N=C4c4ccccc4)cc3)cs2)ccc1Cl,> 100,> 100,> 100,> 100,75,83.6,> 100,> 100,> 100,> 100,,,,,,,,,,
CCOC(=O)/C=C1\Nc2ccccc2C12CCc1c([nH]c3ccccc13)C2C(=O)OCC (configuration not stated),> 100,> 100,> 100,> 100,> 100,> 100,> 100,> 100,> 100,> 100,,,,,,,,,,
COC(=O)C(C)N1C(=O)c2ccccc2I1OC(C)=O (configuration not stated),,,> 100,> 100,,54,45.7,> 100,34.8,> 100,,,> 100,23.3,,16.8,22,69,16.1,> 100
CCCCc1ccc2[n+](c1)C(C(=O)OCC)=PC2 (configuration not stated),> 100,> 100,> 100,> 100,> 100,> 100,> 100,> 100,,> 100,,,,,,,,,,
CC(C)=CCN(N=O)c1ncnc2nc[nH]c12,> 100,> 100,> 100,> 100,,> 100,> 100,> 100,> 100,> 100,,,,,,,,,,
CCOC(=O)c1c2c(n(C)c1-c1ccccc1)C(=O)C(C)=CC2=O,15,33.6,30.4,8.17,27.7,22.8,9.96,23.1,13.2,28.1,,,,,,,,,,
CC(C)(C)OC(=O)NC(Cc1ccccc1)C(=O)N[C@H]1c2ccsc2/C(=N/O)[C@H]1O (some centres not stated),> 100,> 100,> 100,> 100,> 100,> 100,> 100,,> 100,> 100,,,,,,,,,,
O=C1c2ccccc2-c2ccc(NC(=O)C3CCCCC3C(=O)O)cc21 (configuration not stated),> 100,> 100,> 100,> 100,> 100,> 100,> 100,> 100,> 100,> 100,,,,,,,,,,
O=CNc1cccc2c3c([nH]c12)CCCCCC3,> 100,> 100,> 100,> 100,,> 100,> 100,> 100,> 100,> 100,,,,,,,,,,
CCOC(=O)C1C(c2cc(OC)c(O)c(OC)c2)c2cc3c(cc2OC1(C)O)OCO3 (configuration not stated),> 100,> 100,> 100,> 100,,> 100,> 100,,> 100,95.2,,,,,,,,,,
Cc1cc(NS(=O)(=O)c2ccc(Nc3c4ccccc4nc4c(C(=O)NCCN(C)C)ccc(Cl)c34)cc2)no1,15.5,17.3,,23.9,,,1.74,15.3,10.9,,,,,,,,,,,
